Results: ChEMBL document CHEMBL1201862, “PubChem BioAssay data set” (2004)
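Growth conditions: 96-well plates. Treatment: test compound, 48 hours, 5 concentrations. Analysis: linear interpolation between bracketing concentrations; unreached endpoints set to highest concentration. Abbreviation: GI50, concentration required for 50% inhibition of growth.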 The source made the active and inactive calls. No stated cut-off is given here; in the data, active = GI50 up to about 1.1 µM and inactive = higher.

Legend:
Assay in all cases: inhibition of tumour cell growth, NCI panel, 48 h
SK-MEL-2 = test system: SK-MEL-2
786-0 = test system: 786-0
NCI-H226 = test system: NCI-H226
A498 = test system: A498
Malme-3M = test system: Malme-3M
MCF7 = test system: MCF7
Hs-578T = test system: Hs-578T
HT-29 = test system: HT-29
CCRF-CEM = test system: CCRF-CEM
T47D = test system: T47D
SNB-19 = test system: SNB-19
EKVX = test system: EKVX
OVCAR-4 = test system: OVCAR-4
SF-539 = test system: SF-539
SK-MEL-5 = test system: SK-MEL-5
UACC-62 = test system: UACC-62
LOX IMVI = test system: LOX IMVI
ACHN = test system: ACHN
MDA-MB-231 = test system: MDA-MB-231
SK-OV-3 = test system: SK-OV-3
COLO 205 = test system: COLO 205
HOP-62 = test system: HOP-62
SK-MEL-28 = test system: SK-MEL-28
SN12C = test system: SN12C
SF-295 = test system: SF-295
NCI-H23 = test system: NCI-H23
NCI-H460 = test system: NCI-H460
HOP-92 = test system: HOP-92
MOLT-4 = test system: MOLT-4
UACC-257 = test system: UACC-257
DU-145 = test system: DU-145
CAKI-1 = test system: CAKI-1
MDA-MB-435 = test system: MDA-MB-435
RXF 393 = test system: RXF 393
A549 = test system: A549
SF-268 = test system: SF-268
U-251 = test system: U-251
BT-549 = test system: BT-549
RPMI-8226 = test system: RPMI-8226
HCT-116 = test system: HCT-116
HL-60 = test system: HL-60
M14 = test system: M14
NCI/ADR-RES = test system: NCI/ADR-RES
SR = test system: SR
MDA-N = test system: MDA-N
IGROV-1 = test system: IGROV-1
SW-620 = test system: SW-620
PC-3 = test system: PC-3
K562 = test system: K562
HCC 2998 = test system: HCC 2998
NCI-H522 = test system: NCI-H522
SNB-75 = test system: SNB-75
OVCAR-8 = test system: OVCAR-8
TK-10 = test system: TK-10
HCT-15 = test system: HCT-15
KM12 = test system: KM12
OVCAR-5 = test system: OVCAR-5
UO-31 = test system: UO-31
OVCAR-3 = test system: OVCAR-3

Measured: GI50

COc1ccc(/N=C/C=C/Nc2ccc(OC)cc2)cc1
inactive: SK-MEL-2 16.4 µM | 786-0 4 µM | NCI-H226 17.5 µM | A498 14 µM | Malme-3M 11.4 µM | MCF7 4.75 µM | Hs-578T 17.5 µM | HT-29 2.88 µM | CCRF-CEM 6.28 µM | T47D 15 µM | SNB-19 3.43 µM | EKVX 15.7 µM | OVCAR-4 5.24 µM | SF-539 9.64 µM | SK-MEL-5 4.66 µM | UACC-62 13.7 µM | LOX IMVI 2.44 µM | ACHN 15.6 µM | MDA-MB-231 2.38 µM | SK-OV-3 19.7 µM | COLO 205 3.99 µM | HOP-62 5.78 µM | SK-MEL-28 15.2 µM | SN12C 3.9 µM | SF-295 7.98 µM | NCI-H23 19.6 µM | NCI-H460 13.3 µM | HOP-92 15.3 µM | MOLT-4 4.51 µM | UACC-257 7.35 µM | DU-145 18.7 µM | CAKI-1 3.78 µM | MDA-MB-435 9.27 µM | RXF 393 7.67 µM | A549 12.1 µM | SF-268 7.43 µM | U-251 5.35 µM | BT-549 4.18 µM | RPMI-8226 8.81 µM | HCT-116 3.66 µM | HL-60 2.87 µM | M14 11 µM | NCI/ADR-RES 6.95 µM | SR 3.85 µM | MDA-N 4.78 µM | IGROV-1 11.6 µM | SW-620 2.69 µM | PC-3 12 µM | K562 8.13 µM | HCC 2998 8.45 µM | NCI-H522 5.42 µM | SNB-75 16.9 µM | OVCAR-8 3.3 µM | TK-10 11.8 µM | KM12 4.54 µM | OVCAR-5 15.5 µM | UO-31 5.64 µM | OVCAR-3 1.84 µM
4.65 µM: HCT-15
